From publication PMC5127577, “Biochemical Characterization of Glutamate Racemase—A New Candidate Drug Target against Burkholderia cenocepacia Infections” (PLoS ONE, 2016)
Read-outs that look alike come from different tables or passages of the source.

Key:
[1] = system: B. cenocepacia J2315; assay: Minimal Inhibitory Concentration, 2-fold microdilution, resazurin method; format: cell-based, Burkholderia cenocepacia J2315; conditions: planktonic cells, 8 to 1024 μg/ml tested, two days 37°C
[2] = target: T1, B. cenocepacia J2315 glutamate racemase (BcGR) (Burkholderia cenocepacia, UniProt B4EEM8); assay: BcGR enzymatic activity inhibition, spectrophotometric coupled assay (L-glutamate dehydrogenase/diaphorase); conditions: for BcGR inhibition in screening: compound 100 μM; for inhibitory effect in the presence of EDTA: excess of EDTA; for mode of inhibition: steady state kinetics, D-Glu 5–50 mM, compound 0–100 μM
T1 sequence (B4EEM8 1-285): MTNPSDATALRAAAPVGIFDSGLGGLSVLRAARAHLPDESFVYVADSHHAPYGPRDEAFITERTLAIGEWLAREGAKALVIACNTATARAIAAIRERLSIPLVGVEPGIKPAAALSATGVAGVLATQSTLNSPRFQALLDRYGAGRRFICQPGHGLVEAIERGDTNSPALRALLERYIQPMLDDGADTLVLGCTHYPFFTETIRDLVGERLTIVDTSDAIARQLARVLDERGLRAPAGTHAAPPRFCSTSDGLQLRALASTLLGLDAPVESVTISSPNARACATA

[3] = target: GR from B. anthracis; conditions: cited from earlier work
[4] = target: GR from B. subtilis; conditions: cited from earlier work

Compound	MIC (concentration necessary to inhibit growth) [1]	IC50 ([2]; 20 mM D-Glu, 37°C, pH 8.0) [µM]	BcGR inhibition in screening ([2]; 20 mM D-Glu)	inhibitory effect in the presence of EDTA [2]	mode of inhibition [2]	Ki [4] [µM]	also measured
bis(2,4-bis(trichloromethyl)-1,3,5-triazapentadienato)-zinc(II) complex [(1)]	at least 512 μg/ml	35.3 ± 4.9	almost completely inhibit	could be observed also in the presence of EDTA	non-competitive	–	–
O=S(=O)(O)c1ccc(O)c(S(=O)(=O)O)c1 [4-hydroxybenzene-1,3-disulfonate, reference compound]	–	–	did not show any inhibition	–	–	–	Ki [3]: 59 µM
tris(2,4-bis(trichloromethyl)-1,3,5-triazapentadienate)-Mn(III) complex [(2)]	at least 512 μg/ml	10 ± 0.8	almost completely inhibit	could be observed also in the presence of EDTA	non-competitive	–	–
O=S(=O)(O)c1nc2ccccc2[nH]1 [1-H-benzimidazole-2-sulfonic acid, reference compound]	–	–	did not show any inhibition	–	–	9	–
N[C@H](CC(Cc1ccccc1)C(=O)O)C(=O)O (stereo partly drawn) [(2R)-2-amino-4-benzylpentanedioic, (2R)-2-amino-4-benzylpentanedioic acid, reference compound]	–	–	did not show any inhibition	–	–	–	–
O=C(O)c1cccc(C(=O)O)n1 [dipicolinic acid]	–	–	–	–	–	2700	Ki ([3]; non-competitive inhibitor): 92 µM; IC50 [2]: 150 ± 30 µM
